In brackets after ≈: the same amount, converted by molar mass. Read-outs that look alike come from different tables or passages of the source.
What was measured:
Format in all cases: cell-based, Staphylococcus aureus
[1] = tested on: S. aureus ATCC 25923; assay: Antibacterial activity, pre-exposure (planktonic cells and biofilm formation); settings: for Initial screening result (active = at least 60% inhibition of planktonic cells and biofilm formation): 50 μM, S. aureus; for MIC: Staphylococcus aureus, ATCC25923, read-out: MIC (S. aureus)
Procedure: (§1) The antimicrobial activity was assessed in a similar way for the initial screening and the dose–response evaluation against different bacterial strains. With the exception of the post-exposure experiment, the compounds were added to the wells along with the bacteria to test the ability of compounds to prevent bacterial growth and biofilm formation (pre-exposure). The compounds were diluted in DMSO and plated directly in 96-well plates before adding the bacterial culture, and plates were incubated for 18 h under aerobic conditions at 37 °C with shaking (220 rpm). The antibacterial activity of the compounds was assessed on planktonic cells and biofilms separately using two different measurements for each: optical density (turbidity) and resazurin reduction (viability) on planktonic cells and resazurin followed by a crystal violet staining assay (total biomass) on biofilms, as described in the following sections.
(§2) The resazurin staining was performed according to the protocol previously optimized with a few modifications.[46] Briefly, the planktonic solution was first transferred into a new 96-well plate and the OD of the planktonic solution was measured using a Varioskan LUX Multimode microplate reader (Thermo Scientific, Vantaa, Finland). Then, 10 μL of a 400 μM resazurin (R7017, Sigma-Aldrich, St. Louis, MO) diluted in phosphate-buffered saline (PBS) (Thermo Fisher Scientific, MA) was added to the wells (for a final resazurin concentration of 20 μM). The plate was incubated in the dark with shaking (220 rpm) for about 3–10 min at room temperature with S. aureus and A. baumannii (until the bacteria controls turned pink) or for 20 min at 37 °C with P. aeruginosa. Fluorescence was measured at λex = 560 nm and λem = 590 nm using the top optics of the Varioskan LUX Multimode microplate reader. The planktonic plate was then discarded. The original challenge plate containing the biofilms was washed once with PBS, and 200 μL of a 20 μM resazurin solution was added to the wells. The plate was incubated in the dark at 37 °C with shaking (220 rpm) for 30 min with S. aureus, 60 min with A. baumannii, and 90 min with P. aeruginosa. Fluorescence was measured as described for the planktonic solution. The biofilms were next treated with crystal violet staining.
(§3) After removing the resazurin solution from the plate, biofilms were fixed with ethanol 100% for 15 min at room temperature. Ethanol was then removed, and the biofilms were left to air-dry completely at RT. Crystal violet, diluted to 1:100 in deionized water from the 2.3% commercial solution (HT90132, Sigma-Aldrich, St. Louis, MO), was added to the wells and, after a 5 min incubation with the dye, the biofilms were washed twice with deionized water and left to air-dry for about 10 min. The dye was solubilized in ethanol 100% for 1 h, and absorbance was measured at 595 nm using a Multiskan Sky microplate spectrophotometer (Thermo Scientific, Vantaa, Finland).

[2] = tested on: S. aureus ATCC 12598; assay: Antibacterial activity, pre-exposure; settings: S. aureus ATCC 12598, pre-exposure, 50 µM, ± SD; for inhibition at 50 µM: Staphylococcus aureus, ATCC12598
Procedure: as §1, §2, §3

[3] = tested on: S. aureus P2; assay: Antibacterial activity, pre-exposure; settings: S. aureus P2, pre-exposure, 50 µM, ± SD; for inhibition at 50 µM: Staphylococcus aureus
Procedure: as §1, §2, §3

[4] = read-out: Average inhibition %, biofilms biomass
[5] = read-out: Average inhibition %, planktonic cells turbidity

SMILES	MIC [1] [µM]	other results
CCCCCCCCc1ccc(CCC(N)(CO)CO)nc1 [Compound 61, 2-Amino-2-[2-(5-octylpyridin-2-yl)ethyl]propane-1,3-diol]	100 (≈ 30.8 µg/mL)	Initial screening result (active = at least 60% inhibition of planktonic cells and biofilm formation) [1]: did not show an inhibitory activity comparable to fingolimod
NC(CO)(CO)CCc1ccc(OCc2ccccc2)cc1 [Compound 25, 2-Amino-2-[4-(benzyloxy)phenethyl]propane-1,3-diol]	> 100	–
NC(CO)(CO)CCc1ccc(OCc2ccc(C(F)(F)F)cc2)cc1 [Compound 26, 2-Amino-2-[4-[[4-(trifluoromethyl)benzyl]oxy]phenethyl]propane-1,3-diol]	> 100	–
CCCCCCc1ccc(CCC(N)(CO)CO)cc1 [Compound 10, 2-Amino-2-(4-hexylphenethyl)propane-1,3-diol]	100 (≈ 27.9 µg/mL)	Initial screening result (active = at least 60% inhibition of planktonic cells and biofilm formation) [1]: only limited activity against S. aureus biofilms
NC(CO)(CO)CCc1ccc(Cc2ccccc2)cc1 [Compound 12, 2-Amino-2-(4-benzylphenethyl)propane-1,3-diol]	> 100	–
NC(CO)(CO)CCc1ccc2ccccc2n1 [Compound 33, 2-Amino-2-[2-(quinolin-2-yl)ethyl]propane-1,3-diol]	> 100	–
CC1(C)S[C@@H]2[C@H](NC(=O)Cc3ccccc3)C(=O)N2[C@H]1C(=O)O [Penicillin-G, reference compound]	–	Average inhibition %, biofilms viability [2]: 97.5 ± 1.5%; Average inhibition %, planktonic cells viability [2]: 99.7 ± 0%; inhibition at 50 µM [2, 4]: 95.8 ± 1%; inhibition at 50 µM [2, 5]: 99.7%; Average inhibition %, biofilms viability [3]: 9.5 ± 9.8%; Average inhibition %, planktonic cells viability [3]: 14.9 ± 10.3%; inhibition at 50 µM [3, 4]: 17.4 ± 13.2%; inhibition at 50 µM [3, 5]: 12.2 ± 14.5%
NC(CO)(CO)CCc1ccc(OCc2ccc(C(F)(F)F)nc2)cc1 [Compound 27]	> 100	–
NC(CO)(CO)CCc1ccc(OCc2ccc3ccc(Cl)cc3n2)cc1 [Compound 28, 2-Amino-2-[4-[(7-chloroquinolin-2-yl)methoxy]phenethyl]propane-1,3-diol]	> 100	–
COc1ccc(-c2ccc(CCC(N)(CO)CO)cc2)cc1OC [Compound 13, 2-Amino-2-[2-(3′,4′-dimethoxy-[1,1′-biphenyl]-4-yl)ethyl]propane-1,3-diol]	> 100	–
CCCCc1ccc(COc2ccc(CCC(N)(CO)CO)cc2)cc1 [Compound 29, 2-Amino-2-[4-[(4-butylbenzyl)oxy]phenethyl]propane-1,3-diol]	> 100	–
NC(CO)(CO)CCc1ccc(-c2ccc(OCc3ccccc3)cc2)cc1 [Compound 14, 2-Amino-2-[2-[4′-(benzyloxy)-[1,1′-biphenyl]-4-yl]ethyl]propane-1,3-diol]	> 100	–
NC(CO)(CO)CCc1ccc(/C=C/Cc2ccccc2)cc1 [Compound 16, (E)-2-Amino-2-[4-(3-phenylprop-1-en-1-yl)phenethyl]propane-1,3-diol]	> 100	–
